Activity calls are given as the source filed them.

The target in experiment [1] is T1, Hexokinase (Trypanosoma brucei, UniProt Q38C41).
T1 sequence (Q38C41 whole entry): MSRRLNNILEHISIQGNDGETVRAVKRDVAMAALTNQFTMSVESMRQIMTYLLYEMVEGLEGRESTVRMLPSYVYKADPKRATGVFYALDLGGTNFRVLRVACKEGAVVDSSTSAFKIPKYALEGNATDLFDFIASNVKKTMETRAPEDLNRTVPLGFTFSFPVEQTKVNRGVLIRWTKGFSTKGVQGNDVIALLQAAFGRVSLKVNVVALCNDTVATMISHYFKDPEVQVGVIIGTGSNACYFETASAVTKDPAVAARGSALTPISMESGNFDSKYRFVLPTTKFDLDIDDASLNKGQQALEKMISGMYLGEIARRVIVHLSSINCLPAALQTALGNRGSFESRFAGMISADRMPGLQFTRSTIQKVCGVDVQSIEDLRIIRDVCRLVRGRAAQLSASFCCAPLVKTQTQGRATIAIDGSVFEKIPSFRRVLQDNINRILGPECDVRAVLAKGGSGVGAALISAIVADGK
The experiment is described as follows: Confirmation assay for inhibitors of Trypanosoma brucei hexokinase 1-Analogue-first series. [Related pubchem assays (depositor defined):AID1430, AID1632, AID2516, AID2560, AID2579, AID2600, AID449725, AID492951]. The experiment is classed as functional.

Experiment [2] concerns the target T2, Protein RecA (Mycobacterium tuberculosis, UniProt P9WHJ3).
T2 sequence (P9WHJ3 whole entry): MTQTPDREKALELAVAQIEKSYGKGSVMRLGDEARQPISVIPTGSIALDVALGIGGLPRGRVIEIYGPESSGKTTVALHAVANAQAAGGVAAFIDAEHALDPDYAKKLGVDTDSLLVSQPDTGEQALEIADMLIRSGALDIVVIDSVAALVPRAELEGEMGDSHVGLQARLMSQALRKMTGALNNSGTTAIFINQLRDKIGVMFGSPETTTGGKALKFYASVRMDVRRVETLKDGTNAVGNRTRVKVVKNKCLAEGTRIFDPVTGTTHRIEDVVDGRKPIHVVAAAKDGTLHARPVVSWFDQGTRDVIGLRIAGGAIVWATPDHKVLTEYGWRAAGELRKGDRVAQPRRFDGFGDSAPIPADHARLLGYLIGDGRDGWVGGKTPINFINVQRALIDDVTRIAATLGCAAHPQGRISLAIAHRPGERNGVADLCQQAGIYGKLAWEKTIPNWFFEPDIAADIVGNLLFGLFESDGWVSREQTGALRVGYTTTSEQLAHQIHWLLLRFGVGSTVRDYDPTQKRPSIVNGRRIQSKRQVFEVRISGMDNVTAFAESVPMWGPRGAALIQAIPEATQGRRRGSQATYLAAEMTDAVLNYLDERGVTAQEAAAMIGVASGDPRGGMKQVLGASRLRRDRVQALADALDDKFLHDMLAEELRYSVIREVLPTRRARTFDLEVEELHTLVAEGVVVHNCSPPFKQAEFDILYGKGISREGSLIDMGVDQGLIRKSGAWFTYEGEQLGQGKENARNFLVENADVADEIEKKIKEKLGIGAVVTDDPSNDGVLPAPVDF
Nature of the experiment: Fluorescence Cell-Free Homogeneous Dose Retest to Identify Inhibitors of RecA-Intein Splicing Activity. [Related pubchem assays (depositor defined):AID2097, AID2223, AID489010, AID492950]. The experiment is classed as functional.

Experiment [3] has as its target T3, Replicative DNA helicase DnaB (Mycobacterium tuberculosis, UniProt P9WMR3).
T3 sequence (P9WMR3 whole entry): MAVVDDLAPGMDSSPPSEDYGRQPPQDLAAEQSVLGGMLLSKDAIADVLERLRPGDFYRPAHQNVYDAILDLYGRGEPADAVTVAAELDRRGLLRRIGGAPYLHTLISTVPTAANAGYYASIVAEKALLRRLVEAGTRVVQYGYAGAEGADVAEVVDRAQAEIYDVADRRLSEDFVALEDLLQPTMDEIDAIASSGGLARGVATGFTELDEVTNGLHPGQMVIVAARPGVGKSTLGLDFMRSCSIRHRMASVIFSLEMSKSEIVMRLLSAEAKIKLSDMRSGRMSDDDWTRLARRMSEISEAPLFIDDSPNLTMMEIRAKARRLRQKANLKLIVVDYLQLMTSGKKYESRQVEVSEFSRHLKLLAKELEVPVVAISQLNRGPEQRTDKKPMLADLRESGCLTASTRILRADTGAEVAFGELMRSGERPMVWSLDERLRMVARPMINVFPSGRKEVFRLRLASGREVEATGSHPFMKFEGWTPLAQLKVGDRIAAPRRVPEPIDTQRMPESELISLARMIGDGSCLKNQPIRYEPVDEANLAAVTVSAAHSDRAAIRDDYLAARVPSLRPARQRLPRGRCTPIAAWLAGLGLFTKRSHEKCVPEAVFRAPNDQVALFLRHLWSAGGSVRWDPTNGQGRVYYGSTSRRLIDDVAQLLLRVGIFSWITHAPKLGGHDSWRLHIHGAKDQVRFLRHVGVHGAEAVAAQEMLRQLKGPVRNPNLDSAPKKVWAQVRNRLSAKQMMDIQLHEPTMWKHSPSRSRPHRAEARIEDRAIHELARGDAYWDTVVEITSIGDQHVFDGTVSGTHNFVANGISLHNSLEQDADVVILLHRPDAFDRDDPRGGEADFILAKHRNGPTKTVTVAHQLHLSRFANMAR
Nature of the experiment: DnaB intein splicing inhibitors, dose response, biochemical, cell-free fluorescence (AID 449749). The experiment is classed as functional.

Experiment [4] is described as follows: Intein inhibitors as potential Tuberculosis drugs, a cytotoxicity screen. [Related pubchem assays (depositor defined):AID2221, AID2223, AID434968, AID435010, AID449749, AID449750, AID489010]. The experiment is classed as functional.
Experiment [5] has as its target T4, CAAX prenyl protease 2 (Saccharomyces cerevisiae S288c, UniProt Q03530).
T4 sequence (Q03530 whole entry): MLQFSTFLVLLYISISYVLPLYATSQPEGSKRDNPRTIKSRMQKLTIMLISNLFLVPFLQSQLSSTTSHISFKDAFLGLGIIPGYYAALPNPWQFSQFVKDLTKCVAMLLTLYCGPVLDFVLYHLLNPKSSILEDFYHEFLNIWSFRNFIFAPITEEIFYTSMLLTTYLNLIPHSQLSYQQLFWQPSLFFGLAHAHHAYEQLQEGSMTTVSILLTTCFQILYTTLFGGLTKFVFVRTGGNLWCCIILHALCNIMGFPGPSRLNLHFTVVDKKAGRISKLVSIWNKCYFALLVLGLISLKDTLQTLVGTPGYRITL
The experiment is classed as biochemical.

Experiment [6] addresses Trypsin (Sus scrofa, UniProt P00761). Nature of the experiment: porcine trypsin inhibitors, dose response, selectivity assay for Rce1 protease inhibitor project, biochemical, quenched peptide fluorescence, cherry-pick (AID 488789).
In experiment [7] the target is T5, CAAX prenyl protease 2 (Homo sapiens, UniProt Q9Y256).
T5 sequence (Q9Y256 whole entry): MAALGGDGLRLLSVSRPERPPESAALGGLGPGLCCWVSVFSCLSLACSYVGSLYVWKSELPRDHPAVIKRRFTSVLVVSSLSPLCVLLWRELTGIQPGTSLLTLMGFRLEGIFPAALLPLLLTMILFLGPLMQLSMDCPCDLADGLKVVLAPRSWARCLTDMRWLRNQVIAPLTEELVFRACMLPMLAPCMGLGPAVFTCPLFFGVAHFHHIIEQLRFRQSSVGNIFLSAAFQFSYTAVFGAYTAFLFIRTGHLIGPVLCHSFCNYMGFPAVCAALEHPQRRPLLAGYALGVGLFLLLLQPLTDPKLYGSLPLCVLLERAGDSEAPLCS
Nature of the experiment: human Rce1 protease inhibitors, dose response, biochemical, yeast membranes, quenched-peptide fluorescence, cherry-pick (AID 588849).

Experiment [8] is described as follows: HepG2 cell cytotoxicity, dose response, cytotoxicity control for non-replicating M. tuberculosis project (AID 489018). The settings on record: Mycobacterium tuberculosis. The experiment is classed as functional.
Experiment [9] in a line: THP-1 cell cytotoxicity, dose response, cytotoxicity control for non-replicating M. tuberculosis project (AID 489025). The experiment is classed as functional.
The nature of experiment [10]: cells. The experiment is classed as functional, cell-based.
The target of experiment [11] is 26S proteasome non-ATPase regulatory subunit 14 (Homo sapiens, UniProt O00487). Nature of the experiment: inhibition of proteasome subunit RPN11 – biochemical, fluorescence polarization, uHTS hits, confirmation (AID 602368). The experiment is classed as functional. On the technique in general: In fluorescence polarisation assays a small probe gives low polarisation when free and higher when bound to something large.
Sequence of 26S proteasome non-ATPase regulatory subunit 14 (O00487 whole entry): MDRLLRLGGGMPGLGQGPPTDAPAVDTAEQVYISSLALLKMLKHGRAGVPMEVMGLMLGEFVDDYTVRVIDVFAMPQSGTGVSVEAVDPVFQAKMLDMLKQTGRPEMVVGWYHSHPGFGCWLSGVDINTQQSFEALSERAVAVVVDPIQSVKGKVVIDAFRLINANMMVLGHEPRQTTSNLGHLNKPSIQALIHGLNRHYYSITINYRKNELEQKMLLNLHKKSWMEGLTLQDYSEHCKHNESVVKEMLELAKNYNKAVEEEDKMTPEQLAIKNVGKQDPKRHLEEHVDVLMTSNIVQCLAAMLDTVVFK

Experiment [12] is described as follows: C. albicans growth with fluconazole, confirmation, fluorescence, retest (AID 2467). The experiment is classed as functional, cell-based.
Experiment [13] in a line: cells. The experiment is classed as functional, cell-based. This is another data set of the same source.
Experiment [14] concerns the target Albumin (Bos taurus, UniProt P02769). Nature of the experiment: Counterscreen for inhibitors of T-cell receptor (TCR)-CD3 interaction: Fluorescence-based biochemical high throughput dose response assay to identify inhibitors of T-cell receptor (TCR)-CD3 interaction using a TAMRA-labeled BSA probe. The experiment is classed as functional. In general terms: The purpose of a counterscreen is to sort out artefacts and off-target activity.

Experiment [15] concerns the target Prothrombin (Bos taurus, UniProt P00735). Nature of the experiment: thrombin inhibition, dose response, biochemical, fluorescence polarization, uHTS hits (AID 602369). The experiment is classed as functional.
Experiment [16] relates to INS1. Nature of the experiment: beta cell apoptosis inhibitors, cytokine rescue, dose response, luminescence, retest (AID 449756).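 Note: cell death triggered by IL-1 beta plus TNF-alpha plus IFN-gamma mixture; protective hits raise ATP signal compared with cytokine alone wells.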 The experiment is classed as functional, cell-based. As to conditions: Rattus norvegicus.
The nature of experiment [17]: Vero E6 cell cytotoxicity, dose response, cytotoxicity control for non-replicating M. tuberculosis project, secondary assay (AID 492998). The experiment is classed as functional, VeroE6. As to conditions: Vero C1008.
A short description of experiment [18]: NIH-3T3 fibroblast cytotoxicity, dose response, cytotoxicity control, cell-based, fluorescence, Alamar Blue, secondary assay (AID 2327).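 Note: NIH-3T3 mouse fibroblasts cultured with fluconazole at 8 µg/mL.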 The experiment is classed as functional.
Experiment [19] has as its target 72 kDa type IV collagenase (Homo sapiens, UniProt P08253). The experiment is described as follows: Dose Response validation of uHTS RPN11 inhibitor hits using a MMP-2 Fluorescence assay. The experiment is classed as functional.
Experiment [20] has as its target T6, Adenosylmethionine-8-amino-7-oxononanoate aminotransferase (Mycobacterium tuberculosis, UniProt P9WQ81).
T6 sequence (P9WQ81 whole entry): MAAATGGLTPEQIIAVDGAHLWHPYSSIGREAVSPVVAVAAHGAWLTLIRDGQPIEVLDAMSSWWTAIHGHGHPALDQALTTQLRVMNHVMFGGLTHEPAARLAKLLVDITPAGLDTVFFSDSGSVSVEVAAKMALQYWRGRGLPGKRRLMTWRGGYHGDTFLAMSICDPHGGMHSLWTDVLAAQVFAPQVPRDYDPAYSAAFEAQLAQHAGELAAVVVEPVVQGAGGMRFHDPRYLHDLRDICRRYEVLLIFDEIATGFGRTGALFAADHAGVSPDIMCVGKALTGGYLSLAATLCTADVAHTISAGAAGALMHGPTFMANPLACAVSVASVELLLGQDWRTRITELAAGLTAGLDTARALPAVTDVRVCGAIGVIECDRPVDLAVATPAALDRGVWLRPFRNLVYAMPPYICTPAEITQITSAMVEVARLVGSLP
Nature of the experiment: Mycobacterium tuberculosis BioA enzyme inhibitor Measured in Biochemical System Using Plate Reader - 2163-02_Inhibitor_Dose_CherryPick_Activity. The experiment is classed as functional, Mycobacterium tuberculosis UT205.

Sequence of 72 kDa type IV collagenase (P08253 whole entry): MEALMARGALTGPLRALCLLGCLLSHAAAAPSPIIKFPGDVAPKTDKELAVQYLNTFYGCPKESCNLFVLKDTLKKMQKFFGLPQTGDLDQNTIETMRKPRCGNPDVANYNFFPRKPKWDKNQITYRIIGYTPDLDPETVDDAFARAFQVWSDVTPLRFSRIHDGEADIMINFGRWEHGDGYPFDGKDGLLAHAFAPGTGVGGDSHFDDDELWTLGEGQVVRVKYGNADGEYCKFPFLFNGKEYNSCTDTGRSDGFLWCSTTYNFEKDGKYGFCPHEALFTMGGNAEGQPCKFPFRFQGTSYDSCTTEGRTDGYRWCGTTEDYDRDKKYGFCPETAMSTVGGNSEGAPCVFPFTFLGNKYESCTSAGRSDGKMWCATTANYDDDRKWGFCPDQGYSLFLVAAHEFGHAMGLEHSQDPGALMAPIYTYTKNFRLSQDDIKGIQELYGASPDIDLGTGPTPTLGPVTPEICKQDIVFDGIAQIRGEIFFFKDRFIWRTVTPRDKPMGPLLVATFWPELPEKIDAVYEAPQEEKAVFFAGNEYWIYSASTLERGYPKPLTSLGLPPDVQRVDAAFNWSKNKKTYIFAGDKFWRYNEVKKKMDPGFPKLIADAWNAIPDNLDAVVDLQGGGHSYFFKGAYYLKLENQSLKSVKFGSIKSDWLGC
Sequence of Albumin (P02769 whole entry): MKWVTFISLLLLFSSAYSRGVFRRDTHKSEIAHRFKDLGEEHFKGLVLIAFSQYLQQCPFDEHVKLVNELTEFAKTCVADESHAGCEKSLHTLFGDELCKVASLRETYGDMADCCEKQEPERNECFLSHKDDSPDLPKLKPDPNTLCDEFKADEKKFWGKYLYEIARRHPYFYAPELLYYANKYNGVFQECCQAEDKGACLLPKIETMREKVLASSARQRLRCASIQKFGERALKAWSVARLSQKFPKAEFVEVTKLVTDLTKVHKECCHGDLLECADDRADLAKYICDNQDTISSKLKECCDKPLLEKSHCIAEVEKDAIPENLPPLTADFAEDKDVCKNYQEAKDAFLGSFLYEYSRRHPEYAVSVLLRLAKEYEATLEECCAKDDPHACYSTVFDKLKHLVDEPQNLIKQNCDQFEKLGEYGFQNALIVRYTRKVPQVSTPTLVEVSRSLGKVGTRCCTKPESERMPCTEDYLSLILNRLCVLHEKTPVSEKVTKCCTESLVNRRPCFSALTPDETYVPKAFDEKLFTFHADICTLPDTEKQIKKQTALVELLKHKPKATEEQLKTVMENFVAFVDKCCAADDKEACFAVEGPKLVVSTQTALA
Sequence of Trypsin (P00761 whole entry): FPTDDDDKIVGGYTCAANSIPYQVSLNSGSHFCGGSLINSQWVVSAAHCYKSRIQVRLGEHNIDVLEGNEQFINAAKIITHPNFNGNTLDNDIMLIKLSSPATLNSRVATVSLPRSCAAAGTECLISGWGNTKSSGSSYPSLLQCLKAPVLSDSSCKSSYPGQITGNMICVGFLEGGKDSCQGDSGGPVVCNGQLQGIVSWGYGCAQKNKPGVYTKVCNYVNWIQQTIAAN

For orientation: IC50 means the concentration that inhibits the measured activity by half. With `COc1cc(C(=O)Nc2cc(Cl)ccc2C(=O)O)cc(OC)c1OC`, the IC50 in experiment [1] was > 25 µM (inactive).

For the molecule `O=C(Cn1sc2ccccc2c1=O)Nc1ccccc1F`, the IC50 in experiment [1] was 5.8 µM (active).

For orientation: EC50 means the midpoint of the concentration-response curve. Usually AC50 stands for the midpoint of the concentration-response curve, whichever way the signal moves. One may read the CC50 as the concentration that lowers cell viability or growth by half. As to `COC(=O)c1sc(-c2ccc(Cl)cc2)cc1NC(=O)/C=C/C(=O)O`, the concentration giving a half-maximal response (EC50) in experiment [2] was 2.44 µM (active). In addition, the AC50 in experiment [3] is 4.02 µM (active). Moreover, the CC50 in experiment [4] was 24.2 µM (active).

Turning to `O=C(O)c1ccccc1NCCO`, the AC50 was 16.1 µM (active) in [5], 8.2 µM (active) in experiment [6] and 5.81 µM (active) in experiment [7].

Turning to `O=C(N/N=C/c1cc(Br)cc(Cl)c1O)c1ccc2c(c1)OCO2`, the values for the CC50 in experiment [8], in experiment [9] and in [17] were 16.1 µM (active), 1.95 µM (active) and 7.35 µM (active), respectively. Besides, the EC50 in [10] is 22.1 µM (active); in experiment [12] it was 1.03 µM (active); in [13], > 350 µM (not active); in experiment [18], > 150 µM (inactive). The half-inhibitory concentration (IC50) in experiment [11] is 15.5 µM (active); in experiment [14] it was > 94.1 µM (inactive); in experiment [15], 33.8 µM (active); in experiment [19], 65.4 µM (active). Also, the AC50 in experiment [16] is 4.16 µM (active).

Turning to `COc1ccc(C(=O)Nc2cc(Cl)c(Br)cc2C(=O)O)cc1`, the IC50 in [1] was 4.59 µM (active).

Consider `O=[N+]([O-])c1ccc(C[n+]2c(-c3ccccc3)cc(-c3ccccc3)cc2-c2ccccc2)cc1.[O-][Cl+3]([O-])([O-])[O-]`, for which the AC50 in [5] is 81.6 µM (active); in experiment [20] it was 4.55 µM (active); in [7] it was 68.4 µM (active). In addition, the EC50 was 2.75 µM (active) in experiment [12] and 23.7 µM (active) in experiment [18].

The values above are taken from ChEMBL document CHEMBL1201862, “PubChem BioAssay data set” (2004).
